US10167297B2, “Substituted pyridine compounds having herbicidal activity” (BASF SE, priority 2014, dated 2019)

Legend:
Assay type in all cases: in vivo
Poa annua = experiment: greenhouse post-emergence herbicidal activity (use examples); details: POAAN, 0.031 kg/ha, scale 0 to 100
Description: (§1) The seeds of the test plants were sown separately for each species. For the pre-emergence treatment, the active ingredients, which had been suspended or emulsified in water, were applied directly after sowing by means of finely distributing nozzles. The containers were irrigated gently to promote germination and growth and subsequently covered with transparent plastic hoods until the plants had rooted. This cover caused uniform germination of the test plants, unless this had been impaired by the active ingredients. For the post-emergence treatment, the test plants were first grown to a height of 3 to 15 cm, depending on the plant habit, and only then treated with the active ingredients which had been suspended or emulsified in water. For this purpose, the test plants were either sown directly and grown in the same containers, or they were first grown separately as seedlings and transplanted into the test containers a few days prior to treatment. Depending on the species, the plants were kept at 10-25° C. or 20-35° C., respectively. The test period extended over 2 to 4 weeks. During this time, the plants were tended, and their response to the individual treatments was evaluated. Evaluation was carried out using a scale from 0 to 100. 100 means no emergence of the plants, or complete destruction of at least the aerial moieties, and 0 means no damage, or normal course of growth. A good herbicidal activity is given at values of at least 70 and a very good herbicidal activity is given at values of at least 85. The plants used in the greenhouse experiments were of the following species: [table]

Stellaria media = experiment: as above; details: STEME, scale 0 to 100
Description: as §1

Thlaspi arvense = experiment: as above; details: THLAR, 0.031 kg/ha, scale 0 to 100
Description: as §1

Zea mays [1] = experiment: greenhouse post-emergence herbicidal activity on crop plant corn (use examples); details: ZEAMX (corn, crop plant), scale 0 to 100
Description: as §1

Amaranthus retroflexus = experiment: greenhouse post-emergence herbicidal activity (use examples); details: AMARE, 0.050 kg/ha, scale 0 to 100
Description: as §1

Echinocloa crus-galli [2] = experiment: as above; details: Echinochloa crus-galli, ECHCG, 0.050 kg/ha, scale 0 to 100
Description: as §1

Setaria faberi = experiment: as above; details: SETFA, scale 0 to 100
Description: as §1

Abuthilon avicennae = experiment: comparative greenhouse post-emergence herbicidal activity; details: ABUTH, 20 days, scale 0 to 100
Procedure: (§2) The herbicidal activity of the compounds I-5 (N-[2,6-dichloro-3-(8-hydroxy-6,6-dioxo-5H-thiopyrano[4,3-b]pyridin-7-yl)phenyl]-N-methyl-acetamide) and 1-19 (Methyl N-[2,6-dichloro-3-(8-hydroxy-5,5-dimethyl-6,6-dioxo-thiopyrano[4,3-b]pyridin-7-yl)phenyl]-N-methyl-carbamate) according to this invention was tested in comparison with compound I-5 disclosed on page 147 of WO 2012/084755 A1 (not of the invention). These comparative experiments were performed in greenhouse by using the following procedure:
(§3) The culture containers used were plastic flowerpots containing loamy sand with approximately 3.0% of humus as the substrate. The seeds of the test plants were sown separately for each species.
(§4) For the post-emergence treatment, the test plants were first grown to a height of 3 to 15 cm, depending on the plant habit, and only then treated with the active ingredients which had been suspended or emulsified in water using a volume of 375 I/ha and 1% of an Adjuvant. For this purpose, the test plants were either sown directly and grown in the same containers, or they were first grown separately as seedlings and transplanted into the test containers a few days prior to treatment.
(§5) Depending on the species, the plants were kept at 10-25° C. (cold season grasses) or 20-35° C. (warm season grasses), respectively.
(§6) The test period extended over 20 days. During this time, the plants were tended, and their response to the individual treatments was evaluated.
(§7) Evaluation was carried out using a scale from 0 to 100. 100 means complete destruction of at least the aerial moieties, and 0 means no damage, or normal course of growth. A good herbicidal activity is given at values of at least 70 and a very good herbicidal activity is given at values of at least 85.
(§8) The plants used in the greenhouse experiments were of the following species:
(§9) The application rates in the post-emergence treatment were 0.1, 0.05 and 0.025 kg/ha, respectively.

Ambrosia artimisifolio = experiment: as above; details: AMBEL, 20 days, scale 0 to 100
Procedure: as §2, §3, §4, §5, §6, §7, §8, §9

Avena Fatua = experiment: as above; details: AVEFA, 20 days, scale 0 to 100
Procedure: as §2, §3, §4, §5, §6, §7, §8, §9

Bromus steliris = experiment: as above; details: BROST, 20 days, scale 0 to 100
Procedure: as §2, §3, §4, §5, §6, §7, §8, §9

Digitaria sanguine = experiment: as above; details: DIGSA, 20 days, scale 0 to 100
Procedure: as §2, §3, §4, §5, §6, §7, §8, §9

Echinocloa crus-galli [3] = experiment: as above; details: ECHCG, 20 days, scale 0 to 100
Procedure: as §2, §3, §4, §5, §6, §7, §8, §9

Lolium Multiflori = experiment: as above; details: LOLMU, 20 days, scale 0 to 100
Procedure: as §2, §3, §4, §5, §6, §7, §8, §9

Polygonum convolvulus [4] = experiment: as above; details: POLCO, 20 days, scale 0 to 100
Procedure: as §2, §3, §4, §5, §6, §7, §8, §9

Setaria viridis [5] = experiment: as above; details: SETVI, 20 days, scale 0 to 100
Procedure: as §2, §3, §4, §5, §6, §7, §8, §9

Zea mays [6] = experiment: comparative greenhouse post-emergence herbicidal activity on crop plant corn; details: ZEAMX (corn, crop plant), 20 days, scale 0 to 100
Procedure: as §2, §3, §4, §5, §6, §7, §8, §9

Polygonum convolvulus [7] = experiment: greenhouse post-emergence herbicidal activity (use examples); details: POLCO, 0.063 kg/ha, scale 0 to 100
Description: as §1

Setaria viridis [8] = experiment: as above; details: SETVI, 0.063 kg/ha, scale 0 to 100
Description: as §1

Work on `CCC(=O)N(C)c1c(Cl)ccc(C2=C(O)c3ncccc3C(C)(C)S2(=O)=O)c1Cl` [Compound I-10, N-[2,6-dichloro-3-(8-hydroxy-5,5-dimethyl-6,6-dioxo-thiopyrano[4,3-b]pyridin-7-yl)phenyl]-N-methyl-propanamide] yielded a Herbicidal activity (Poa annua) of 98, a Herbicidal activity (Stellaria media; 0.031 kg/ha) of 100 and a Herbicidal activity (Thlaspi arvense) of 100. It also gave a plant injury at 31 g/ha (Zea mays [1]; 0.031 kg/ha) of 30%.

With `COC(=O)N(C)c1c(Cl)ccc(C2=C(O)c3ncccc3C(C)(C)S2(=O)=O)c1Cl` [Compound I-19, Methyl N-[2,6-dichloro-3-(8-hydroxy-5,5-dimethyl-6,6-dioxo-thiopyrano[4,3-b]pyridin-7-yl)phenyl]-N-methyl-carbamate] the Herbicidal activity (Amaranthus retroflexus) was 98, the pest or weed control at 50 g/ha (Echinocloa crus-galli [2]) was 95% and the Herbicidal activity (Setaria faberi; 0.050 kg/ha) was 98. For the same compound, the plant injury at 50 g/ha (Zea mays [1]; 0.050 kg/ha) was 20%, the Herbicidal activity (Abuthilon avicennae; 0.025 kg/ha) was 75 and the Herbicidal activity (Abuthilon avicennae; 0.05 kg/ha) was 85. It also gave a Herbicidal activity (Abuthilon avicennae; 0.1 kg/ha) of 98, a Herbicidal activity (Ambrosia artimisifolio; 0.025 kg/ha) of 85 and a Herbicidal activity (Ambrosia artimisifolio; 0.05 kg/ha) of 95. For the same compound, the Herbicidal activity (Ambrosia artimisifolio; 0.1 kg/ha) was 90, the Herbicidal activity (Avena Fatua; 0.025 kg/ha) was 50 and the Herbicidal activity (Avena Fatua; 0.05 kg/ha) was 80. It also gave a Herbicidal activity (Avena Fatua; 0.1 kg/ha) of 90, a Herbicidal activity (Bromus steliris; 0.025 kg/ha) of 80 and a Herbicidal activity (Bromus steliris; 0.05 kg/ha) of 85. It also gave a Herbicidal activity (Bromus steliris; 0.1 kg/ha) of 95, a Herbicidal activity (Digitaria sanguine; 0.025 kg/ha) of 95 and a Herbicidal activity (Digitaria sanguine; 0.05 kg/ha) of 98. It also gave a Herbicidal activity (Digitaria sanguine; 0.1 kg/ha) of 95, a Herbicidal activity (Echinocloa crus-galli [3]; 0.025 kg/ha) of 85 and a Herbicidal activity (Echinocloa crus-galli [3]; 0.05 kg/ha) of 90. It also gave a Herbicidal activity (Echinocloa crus-galli [3]; 0.1 kg/ha) of 95, a Herbicidal activity (Lolium Multiflori; 0.025 kg/ha) of 25 and a Herbicidal activity (Lolium Multiflori; 0.05 kg/ha) of 35. For the same compound, the Herbicidal activity (Lolium Multiflori; 0.1 kg/ha) was 75, the Herbicidal activity (Polygonum convolvulus [4]; 0.025 kg/ha) was 45 and the Herbicidal activity (Polygonum convolvulus [4]; 0.05 kg/ha) was 45. For the same compound, the Herbicidal activity (Polygonum convolvulus [4]; 0.1 kg/ha) was 95, the Herbicidal activity (Setaria viridis [5]; 0.025 kg/ha) was 85 and the Herbicidal activity (Setaria viridis [5]; 0.05 kg/ha) was 100. The Herbicidal activity (Setaria viridis [5]; 0.1 kg/ha) was 100, the Herbicidal activity (Zea mays [6]; 0.025 kg/ha) was 15 and the Herbicidal activity (Zea mays [6]; 0.05 kg/ha) was 35.

`CN(C(=O)C(F)F)c1c(Cl)ccc(C2=C(O)c3ncccc3C(C)(C)S2(=O)=O)c1Cl` [Compound I-18, N-[2,6-dichloro-3-(8-hydroxy-5,5-dimethyl-6,6-dioxo-thiopyrano[4,3-b]pyridin-7-yl)phenyl]-2,2-difluoro-N-methyl-acetamide] gave a Herbicidal activity (Setaria faberi; 0.125 kg/ha) of 98, a Herbicidal activity (Stellaria media; 0.125 kg/ha) of 100 and a plant injury at 125 g/ha (Zea mays [1]; 0.125 kg/ha) of 30%.

In the case of `CN(C(=O)C1CC1)c1c(Cl)ccc(C2=C(O)c3ncccc3C(C)(C)S2(=O)=O)c1Cl` [Compound I-9, N-[2,6-dichloro-3-(8-hydroxy-5,5-dimethyl-6,6-dioxo-thiopyrano[4,3-b]pyridin-7-yl)phenyl]-N-methyl-cyclopropanecarboxamide], the Herbicidal activity (Polygonum convolvulus [7]) is reported as 95, the Herbicidal activity (Setaria viridis [8]) is reported as 95 and the Herbicidal activity (Stellaria media; 0.063 kg/ha) is reported as 100. The plant injury at 63 g/ha (Zea mays [1]; 0.063 kg/ha) was 5%.
